Test results as given in patent publication US12690586B2, “Herbicidal malonamides” (BASF SE, priority 2020, dated 2026).

How the values were obtained:
Assay in all cases: greenhouse post-emergence herbicidal test
Assay type in all cases: in vivo
Details in all cases: post-emergence method, application rate 0.125 kg/ha; scale 0 to 100
Avena fatua (AVEFA) = test system: Avena fatua (AVEFA)
From the text: (§1) The culture containers used were plastic flowerpots containing loamy sand with approximately 3.0% of humus as the substrate. The seeds of the test plants were sown separately for each species.
(§2) For the pre-emergence treatment, the active ingredients, which had been suspended or emulsified in water, were applied directly after sowing by means of finely distributing nozzles. The containers were irrigated gently to promote germination and growth and subsequently covered with transparent plastic hoods until the test plants had rooted. This cover caused uniform germination of the test plants, unless this had been impaired by the active ingredients. For the post-emergence treatment, the test plants were first grown to a height of 3 to 15 cm, depending on the plant habit, and only then treated with the active ingredients which had been suspended or emulsified in water. For this purpose, the test plants were either sown directly and grown in the same containers, or they were first grown separately as seedlings and transplanted into the test containers a few days prior to treatment.
(§3) Depending on the species, the test plants were kept at 10-25° C. or 20-35° C., respectively. The test period extended over 2 to 4 weeks. During this time, the test plants were tended, and their response to the individual treatments was evaluated.
(§4) Evaluation was carried out using a scale from 0 to 100. 100 means no emergence of the test plants, or complete destruction of at least the aerial moieties, and 0 means no damage, or normal course of growth. A good herbicidal activity is given at values of 65 to 90 and a very good herbicidal activity is given at values of 90 to 100.
(§5) The test plants used in the greenhouse experiments were of the following species: […]

[1] = test system: Alopecurus myosuroides (ALOMY)
From the text: as §1, §2, §3, §4, §5

[2] = test system: Abutilon theophrasti (ABUTH)
From the text: as §1, §2, §3, §4, §5

COC(=O)[C@@H]1C=C[C@H](NC(=O)C2(C(=O)Nc3cc(F)cc(F)c3)CC2)C1 [I.2, methyl (1S,4R)-4-{1-[(3,5-difluorophenyl)carbamoyl]cyclopropaneamido}cyclopent-2-ene-1-carboxylate]
herbicidal activity against AVEFA (Avena fatua (AVEFA)): very good (a very good herbicidal activity is given at values of 90 to 100) | herbicidal activity against ALOMY [1]: very good (a very good herbicidal activity is given at values of 90 to 100) | herbicidal activity against ABUTH [2]: good (A good herbicidal activity is given at values of 65 to 90)
